From ChEMBL document CHEMBL1143290, “In vitro anti-inflammatory activity of lignans isolated from Magnolia fargesii” (Bioorg Med Chem Lett, 2009)

Columns and labels:
BV-2 = test: Inhibition of NO production in LPS-stimulated mouse BV2 cells assessed as nitrite accumulation after 20 hrs by Griess reagent method; assay type: functional, cell-based; conditions: BV-2, 20 h
[1] = Inhibition of NOS

Row | IC50 (BV-2) | IC50 [1] | SMILES
1 | 28.6 µM |  | COc1cc([C@H]2OC[C@H]3[C@@H]2CO[C@@H]3c2cc(OC)c(OC)c(OC)c2)cc(OC)c1OC
2 | 20.5 µM |  | COc1ccc([C@H]2OC[C@H]3[C@@H]2CO[C@@H]3c2cc(OC)c(OC)c(OC)c2)cc1OC
3 | 30 µM |  | COc1ccc([C@H]2OC[C@H]3[C@@H]2CO[C@@H]3c2ccc(OC)c(OC)c2)cc1OC [(+)-EUDESMIN]
4 |  | 19.2 µM | CNC(=N)NCCC[C@H](N)C(=O)O [TILARGININE]
